Assay results published in patent US20240409585A1, “MACROCYCLIC IMMUNOMODULATORS” (priority 2021, published 2024).
Numbered stars: 1 amine (or outer) side, 2 acyl side, 3 side chain; on linkers, the order of the positions; unused ones are H or OH. Bridge positions count the residues as written; N and C are the ends. Square brackets hold non-standard residues; d marks the D form. Peptide text beside a SMILES is read from it. * marks the point of attachment. Bip(4'-COOH) = N[C@@H](Cc1ccc(-c2ccc(C(=O)O)cc2)cc1)C(=O)O; Bip(4'-NHAc) = CC(=O)Nc1ccc(-c2ccc(C[C@H](N)C(=O)O)cc2)cc1; X24 = COc1ccccc1-c1cn(C[C@H](N[*:1])C(=O)[*:2])nn1; Phe(3-CF3) = N[C@@H](Cc1cccc(C(F)(F)F)c1)C(=O)O; Ala(morpholin-4-yl) = N[C@@H](CN1CCOCC1)C(=O)O; Phe(4-CONH2) = NC(=O)c1ccc(C[C@H](N)C(=O)O)cc1; Phe(4-COOH) = N[C@@H](Cc1ccc(C(=O)O)cc1)C(=O)O; Bip = N[C@@H](Cc1ccc(-c2ccccc2)cc1)C(=O)O; Abu(3R-NH2) = C[C@@H](N)[C@H](N)C(=O)O; Phe(3-Me) = Cc1cccc(C[C@H](N)C(=O)O)c1; Abu(3S-NH2) = C[C@H](N)[C@H](N)C(=O)O; Val(3-OH) = CC(C)(O)[C@H](N)C(=O)O; hArg = N=C(N)NCCCC[C@H](N)C(=O)O; Cha = N[C@@H](CC1CCCCC1)C(=O)O; Carboxymethyl = O=C(O)C*; NMeA = CN[C@@H](C)C(=O)O; Orn = NCCC[C@H](N)C(=O)O; Dab = NCC[C@H](N)C(=O)O; X48 = CN(C)S(=O)(=O)O*; X42 = CS(=O)(=O)O*

Target: T1, Alexa fluor-647 labeled human PD-L1-Ig binding to Jurkat cell line over-expressing human PD-1 (Homo sapiens, UniProt Q15116)
T1 construct: expressed in transfected cells; host or cells: Jurkat
Assay: Jurkat-PD-1 Cell Binding High-Content Screening Assay (CBA): Method 3 (Alexa fluor-647 labeled PD-L1-Ig)
Conditions: Jurkat-PD-1 cells, Alexa fluor-647 labeled PD-L1-Ig 177 nM; head μM; read-out: CBA Method 3 μM
Procedure, shortened: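 Jurkat cells over-expressing human PD-1 in RPMI/10% FCS were preincubated 2 h at 37 °C with compound, then exposed 1 h to Alexa fluor-647 labeled human PD-L1-Ig (177 nM final). Cells fixed in 4% paraformaldehyde with Hoechst 33342 and binding quantified by high-content imaging.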

T1 sequence (Q15116 25-288): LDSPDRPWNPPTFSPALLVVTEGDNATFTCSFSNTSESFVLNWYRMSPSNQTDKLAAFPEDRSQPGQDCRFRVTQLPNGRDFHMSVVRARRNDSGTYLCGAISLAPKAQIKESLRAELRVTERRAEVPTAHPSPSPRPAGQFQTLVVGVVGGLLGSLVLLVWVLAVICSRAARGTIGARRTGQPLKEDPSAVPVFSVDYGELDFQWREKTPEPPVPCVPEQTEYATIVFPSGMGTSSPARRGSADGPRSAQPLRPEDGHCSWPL

IC50 | Compound
0.1 µM | CC(=O)Nc1ccc(-c2ccc(C[C@@H]3NC(=O)[C@H](Cc4cccc(C)c4)NC(=O)[C@H](CC(=O)O)NC(=O)[C@H](Cc4ccc(-c5ccc(C(=O)O)cc5)cc4)NC(=O)[C@H](CN4CCOCC4)NC(=O)CSC[C@@H](C(=O)N[C@@H](CCN)C(N)=O)NC(=O)[C@H](CCC(=O)O)NC(=O)[C@H](C(C)C)NC(=O)[C@H](CC4CCCCC4)NC(=O)[C@H](CCN)NC(=O)[C@@H](CC(C)C)NC(=O)[C@H](C)N(C)C(=O)[C@H](Cc4ccc(C(=O)O)cc4)NC(=O)[C@H](Cc4ccc(-c5ccccc5)cc4)NC3=O)cc2)cc1 [Example 5092] ({CH2CO}-[Ala(morpholin-4-yl)][Bip(4'-COOH)]D[Phe(3-Me)][Bip(4'-NHAc)][Bip][Phe(4-COOH)][NMeA][dL][Dab][Cha]VEC[Dab]-NH2; thioether N-14)
0.02 µM | CC(=O)Nc1ccc(-c2ccc(C[C@@H]3NC(=O)[C@H](Cc4cccc(C)c4)NC(=O)[C@H](CC(=O)O)NC(=O)[C@H](Cc4ccc(C(=O)O)cc4)NC(=O)[C@H](CC4CCCCC4)NC(=O)CSC[C@@H](C(=O)N[C@@H](CCN)C(N)=O)NC(=O)[C@H](CCC(N)=O)NC(=O)[C@H](C(C)C)NC(=O)[C@H](CC4CCCCC4)NC(=O)[C@H](CCN)NC(=O)[C@@H](CC(C)C)NC(=O)[C@H](C)N(C)C(=O)[C@H](Cc4ccc(C(=O)O)cc4)NC(=O)[C@H](Cc4ccc(-c5ccccc5)cc4)NC3=O)cc2)cc1 [Example 5200] ({CH2CO}-[Cha][Phe(4-COOH)]D[Phe(3-Me)][Bip(4'-NHAc)][Bip][Phe(4-COOH)][NMeA][dL][Dab][Cha]VQC[Dab]-NH2; thioether N-14)
0.15 µM | CC(C)C[C@H]1NC(=O)[C@H](C)N(C)C(=O)[C@H](Cc2ccc(C(N)=O)cc2)NC(=O)[C@H](Cc2ccc(-c3ccccc3)cc2)NC(=O)[C@H](Cc2ccc(C(=O)O)cc2)NC(=O)[C@H](Cc2cccc(C(F)(F)F)c2)NC(=O)[C@H](CC(=O)OS(=O)(=O)N(C)C)NC(=O)[C@H](Cc2ccc(C(=O)O)cc2)NC(=O)[C@H]([C@H](C)N)NC(=O)CSC[C@@H](C(=O)N[C@@H](CCN)C(N)=O)NC(=O)[C@H](CC(N)=O)NC(=O)[C@H](C(C)C)NC(=O)[C@H](CC2CCCCC2)NC(=O)[C@H](CCN)NC1=O [Example 5113] ({CH2CO}-[Abu(3S-NH2)][Phe(4-COOH)]D(X48)[Phe(3-CF3)][Phe(4-COOH)][Bip][Phe(4-CONH2)][NMeA][dL][Dab][Cha]VNC[Dab]-NH2; thioether N-14)
0.19 µM | Cc1cccc(C[C@@H]2NC(=O)[C@H](CC(=O)O)NC(=O)[C@H](Cc3ccc(-c4ccc(C(=O)O)cc4)cc3)NC(=O)[C@H]([C@@H](C)O)NC(=O)CSC[C@@H](C(=O)N[C@@H](CCN)C(N)=O)NC(=O)[C@H](Cc3cnc[nH]3)NC(=O)[C@H](C(C)(C)O)NC(=O)[C@H](CC3CCCCC3)NC(=O)[C@H](CCN)NC(=O)[C@@H](CC(C)C)NC(=O)[C@H](C)N(C)C(=O)[C@H](Cc3ccc(C(=O)O)cc3)NC(=O)[C@H](Cc3ccc(-c4ccccc4)cc3)NC(=O)[C@H](Cc3ccc(-c4ccc(C(=O)O)cc4)cc3)NC2=O)c1 [Example 5131] ({CH2CO}-T[Bip(4'-COOH)]D[Phe(3-Me)][Bip(4'-COOH)][Bip][Phe(4-COOH)][NMeA][dL][Dab][Cha][Val(3-OH)]HC[Dab]-NH2; thioether N-14)
0.1 µM | CC(=O)Nc1ccc(-c2ccc(C[C@@H]3NC(=O)[C@H](Cc4cccc(C(F)(F)F)c4)NC(=O)[C@H](CC(=O)OS(C)(=O)=O)NC(=O)[C@H](Cc4ccc(C(=O)O)cc4)NC(=O)[C@H]([C@H](C)N)NC(=O)CSC[C@@H](C(=O)N[C@@H](CCN)C(N)=O)NC(=O)[C@H](CC(N)=O)NC(=O)[C@H](C(C)C)NC(=O)[C@H](CC4CCCCC4)NC(=O)[C@H](CCN)NC(=O)[C@@H](CC(C)C)NC(=O)[C@H](C)N(C)C(=O)[C@H](Cc4ccc(C(N)=O)cc4)NC(=O)[C@H](Cc4ccc(-c5ccccc5)cc4)NC3=O)cc2)cc1 [Example 5112] ({CH2CO}-[Abu(3S-NH2)][Phe(4-COOH)]D(X42)[Phe(3-CF3)][Bip(4'-NHAc)][Bip][Phe(4-CONH2)][NMeA][dL][Dab][Cha]VNC[Dab]-NH2; thioether N-14)
0.45 µM | COc1ccccc1-c1cn(C[C@@H]2NC(=O)[C@H](Cc3ccc(C(=O)O)cc3)NC(=O)[C@H](Cc3cccc(C(F)(F)F)c3)NC(=O)[C@H](CC(=O)O)NC(=O)[C@H](Cc3ccc(C(=O)O)cc3)NC(=O)[C@H](CN3CCOCC3)NC(=O)CSC[C@@H](C(=O)N[C@@H](CCN)C(N)=O)NC(=O)[C@H](CCC(=O)O)NC(=O)[C@H](C(C)C)NC(=O)[C@H](CC3CCCCC3)NC(=O)[C@H](CCN)NC(=O)[C@@H](CC(C)C)NC(=O)[C@H](C)N(C)C(=O)[C@H](Cc3ccc(C(=O)O)cc3)NC2=O)nn1 [Example 5197] ({CH2CO}-[Ala(morpholin-4-yl)][Phe(4-COOH)]D[Phe(3-CF3)][Phe(4-COOH)][X24][Phe(4-COOH)][NMeA][dL][Dab][Cha]VEC[Dab]-NH2; thioether N-14)

Same assay, conditions: Jurkat-PD-1 cells, Alexa fluor-647 labeled PD-L1-Ig 177 nM; nM; read-out: CBA Method 3

Compound | IC50
Cc1cccc(C[C@@H]2NC(=O)[C@H](CC(=O)O)NC(=O)[C@H](Cc3ccc(OCC(=O)O)cc3)NC(=O)[C@H](Cc3ccc(OCC(=O)O)cc3)NC(=O)CSC[C@@H](C(=O)N[C@@H](CCN)C(N)=O)NC(=O)[C@H](CCCN)NC(=O)[C@H](C(C)C)NC(=O)[C@H](CC3CCCCC3)NC(=O)[C@H](CCN)NC(=O)[C@@H](CC(C)C)NC(=O)[C@H](C)N(C)C(=O)[C@H](CCC(N)=O)NC(=O)[C@H](Cc3ccc(-c4ccccc4)cc3)NC(=O)[C@H](Cc3ccc(C(=O)O)cc3)NC2=O)c1 [Example 5168] ({CH2CO}-Y(Carboxymethyl)Y(Carboxymethyl)D[Phe(3-Me)][Phe(4-COOH)][Bip]Q[NMeA][dL][Dab][Cha]V[Orn]C[Dab]-NH2; thioether N-14) | 0.0014 µM
CC(C)C[C@H]1NC(=O)[C@H](C)N(C)C(=O)[C@H](Cc2ccc(C(=O)O)cc2)NC(=O)[C@H](Cc2ccc(-c3ccccc3)cc2)NC(=O)[C@H](Cc2ccc(C(=O)O)cc2)NC(=O)[C@H](Cc2cccc(C(F)(F)F)c2)NC(=O)[C@H](CC(=O)O)NC(=O)[C@H](Cc2ccc(C(=O)O)cc2)NC(=O)[C@H](CC2CCCCC2)NC(=O)CSC[C@@H](C(=O)N[C@@H](CCN)C(N)=O)NC(=O)[C@H](CCC(=O)O)NC(=O)[C@H](C(C)C)NC(=O)[C@H](CC2CCCCC2)NC(=O)[C@H](CCN)NC1=O [Example 5195] ({CH2CO}-[Cha][Phe(4-COOH)]D[Phe(3-CF3)][Phe(4-COOH)][Bip][Phe(4-COOH)][NMeA][dL][Dab][Cha]VEC[Dab]-NH2; thioether N-14) | 0.0017 µM
Cc1cccc(C[C@@H]2NC(=O)[C@H](CC(=O)O)NC(=O)[C@H](Cc3ccc(OCC(=O)O)cc3)NC(=O)[C@H](CCCCNC(=N)N)NC(=O)CSC[C@@H](C(=O)N[C@@H](CCN)C(N)=O)NC(=O)[C@H](CCCN)NC(=O)[C@H](C(C)C)NC(=O)[C@H](CC3CCCCC3)NC(=O)[C@H](CCN)NC(=O)[C@@H](CC(C)C)NC(=O)[C@H](C)N(C)C(=O)[C@H](CCC(N)=O)NC(=O)[C@H](Cc3ccc(-c4ccccc4)cc3)NC(=O)[C@H](Cc3ccc(C(=O)O)cc3)NC2=O)c1 [Example 5184] ({CH2CO}-[hArg]Y(Carboxymethyl)D[Phe(3-Me)][Phe(4-COOH)][Bip]Q[NMeA][dL][Dab][Cha]V[Orn]C[Dab]-NH2; thioether N-14) | 0.0011 µM

Other lines, results leading:

IC50 | Compound
0.0013 µM | Cc1cccc(C[C@@H]2NC(=O)[C@H](CC(=O)O)NC(=O)[C@H](Cc3ccc(C(=O)O)cc3)NC(=O)[C@H](CN3CCOCC3)NC(=O)CSC[C@@H](C(=O)N[C@@H](CCN)C(N)=O)NC(=O)[C@H](CCC(=O)O)NC(=O)[C@H](C(C)C)NC(=O)[C@H](CC3CCCCC3)NC(=O)[C@H](Cc3cnc[nH]3)NC(=O)[C@@H](CC(C)C)NC(=O)[C@H](C)N(C)C(=O)[C@H](Cc3ccc(C(=O)O)cc3)NC(=O)[C@H](Cc3ccc(-c4ccccc4)cc3)NC(=O)[C@H](Cc3ccc(C(=O)O)cc3)NC2=O)c1 [Example 5254] ({CH2CO}-[Ala(morpholin-4-yl)][Phe(4-COOH)]D[Phe(3-Me)][Phe(4-COOH)][Bip][Phe(4-COOH)][NMeA][dL]H[Cha]VEC[Dab]-NH2; thioether N-14)
0.0024 µM | CC(C)C[C@H]1NC(=O)[C@H](C)N(C)C(=O)[C@H](CCC(N)=O)NC(=O)[C@H](Cc2ccc(-c3ccccc3)cc2)NC(=O)[C@H](Cc2ccc(OCC(=O)O)cc2)NC(=O)[C@H](Cc2cccc(C(F)(F)F)c2)NC(=O)[C@H](CC(=O)O)NC(=O)[C@H](Cc2ccc(OCC(=O)O)cc2)NC(=O)[C@H]([C@@H](C)N)NC(=O)CSC[C@@H](C(=O)N[C@@H](CCN)C(N)=O)NC(=O)[C@H](CCCN)NC(=O)[C@H](C(C)C)NC(=O)[C@H](CC2CCCCC2)NC(=O)[C@H](CCN)NC1=O [Example 5220] ({CH2CO}-[Abu(3R-NH2)]Y(Carboxymethyl)D[Phe(3-CF3)]Y(Carboxymethyl)[Bip]Q[NMeA][dL][Dab][Cha]V[Orn]C[Dab]-NH2; thioether N-14)
0.0005 µM | Cc1cccc(C[C@@H]2NC(=O)CSC[C@@H](C(=O)N[C@@H](CCN)C(N)=O)NC(=O)[C@H](CCCN)NC(=O)[C@H](C(C)C)NC(=O)[C@H](CC3CCCCC3)NC(=O)[C@H](CCN)NC(=O)[C@@H](CC(C)C)NC(=O)[C@H](C)N(C)C(=O)[C@H](CCC(N)=O)NC(=O)[C@H](Cc3ccc(-c4ccccc4)cc3)NC(=O)[C@H](Cc3ccc(C(=O)O)cc3)NC(=O)[C@H](Cc3cccc(C)c3)NC(=O)[C@H](CC(=O)O)NC(=O)[C@H](Cc3ccc(OCC(=O)O)cc3)NC2=O)c1 [Example 5273] ({CH2CO}-[Phe(3-Me)]Y(Carboxymethyl)D[Phe(3-Me)][Phe(4-COOH)][Bip]Q[NMeA][dL][Dab][Cha]V[Orn]C[Dab]-NH2; thioether N-14)
